In patent US6391882B1, “4,5,6 and 7-indole and indoline derivatitives, their preparation and use” (H. Lundbeck A/S, priority 1998, dated 2002):
Where a name gives a salt, the structure may show the parent alone.

SMILES | melting point [°C]
Fc1ccc2[nH]cc(CCN3CCN(c4cccc5c4ccn5Cc4ccccc4)CC3)c2c1 (as salt: fumarate) [Compound 2m, 1-(1-Benzyl-1H-indol-4-yl)-4-(2-(5-fluoro-1H-indol-3-yl)ethyl)piperazine] | 178 to 180
Cc1cccc2occ(CCN3CCN(c4cccc5[nH]ccc45)CC3)c12 (as salt: oxalate) [Compound 4r, 1-(1H-Indol-4-yl)-4-(2-(4-methyl-3-benzofuranyl)ethyl)piperazine] | 204 to 206
Clc1cccc2[nH]cc(CCN3CCN(c4cccc5[nH]ccc45)CC3)c12 (as salt: oxalate) [Compound 2b, 1-(2-(4-Chloro-1H-indol-3-yl)ethyl)-4-(1H-indol-4-yl)piperazine] | 245 to 247
N#Cc1c[nH]c2cccc(N3CCN(CCc4c[nH]c5cc(Cl)ccc45)CC3)c12 (as salt: fumarate) [Compound 4o, 1-(2-(6-Chloro-1H-indol-3-yl)ethyl)-4-(3-cyano-1H-indol-4-yl)piperazine] | 234 to 236
Fc1ccc2occ(CCCN3CC=C(c4cccc5[nH]ccc45)CC3)c2c1 (as salt: fumarate) [Compound 4s, 1-(3-(5-Fluoro-3-benzofuranyl)-1-propyl)-4-(1H-indol-4-yl)-1,2,3,6-tetrahydropyridine] | 183 to 185
c1cc(N2CCN(CCc3n[nH]c4ccccc34)CC2)c2cc[nH]c2c1 (as salt: oxalate) [Compound 1j, 1-(2-(3-Indazolyl)ethyl)-4-(1H-indol-4-yl)piperazine] | 149 to 151
Fc1ccc2occ(CCCN3CCN(c4cccc5[nH]ccc45)CC3)c2c1 (as salt: hydrochloride) [Compound 1h, 1-(3-(5-Fluoro-3-benzofuranyl)-1-propyl)-4-(1H-indol-4-yl)piperazine] | 230 to 234
c1ccc2c(CCN3CCN(c4cccc5[nH]ccc45)CC3)c[nH]c2c1 (as salt: oxalate) [Compound 1e, 1-(2-(1H-indol-3-yl)ethyl)-4-(1H-indol-4-yl)piperazine] | 167 to 169
C#CCn1ccc2c(N3CCN(CCc4c[nH]c5cc(Cl)ccc45)CC3)cccc21 | 197 to 199
Fc1ccc2[nH]cc(CCN3CCN(c4cccc5[nH]ccc45)CC3)c2c1 (as salt: fumarate) [Compound 2c, 1-(2-(5-Fluoro-1H-indol-3-yl)ethyl)-4-(1H-indol-4-yl)piperazine] | 212 to 215
c1ccc(Cn2ccc3c(N4CCN(CCc5c[nH]c6ccccc56)CC4)cccc32)cc1 (as salt: fumarate) [Compound 2s, 1-(1-Benzyl-1H-indol-4-yl)-4-(2-(1H-indol-3-yl)ethyl)piperazine] | 188 to 190
c1ccc2c(CCCCN3CCN(c4cccc5[nH]ccc45)CC3)c[nH]c2c1 (as salt: oxalate) [Compound 1g, 1-(4-(1H-indol-3-yl)-1-butyl)-4-(1H-indol-4yl)piperazine] | 189 to 193
c1ccc2c(CCCN3CCN(c4cccc5[nH]ccc45)CC3)c[nH]c2c1 (as salt: oxalate) [Compound 1f, 1-(3-(1H-indol-3-yl)-1-propyl)-4-(1H-indol-4-yl)piperazine] | 198 to 204
N#Cc1c[nH]c2cccc(N3CCN(CCc4c[nH]c5cccc(Cl)c45)CC3)c12 (as salt: fumarate) [Compound 4x, 1-(2-(4-Chloro-1H-indol-3-yl)ethyl)-4-(3-cyano-1H-indol-4-yl)piperazine] | > 250
N#Cc1c[nH]c2cccc(N3CCN(CCc4c[nH]c5ccccc45)CC3)c12 (as salt: fumarate) [Compound 4m, 1-(3-Cyano-1H-indol-4-yl)-4-(2-(1H-indol-3-yl)ethyl)piperazine] | > 250
COC(=O)c1cc(N2CCN(CCc3coc4ccc(F)cc34)CC2)c2cc[nH]c2c1 (as salt: oxalate) [Compound 4h, 1-(2-(5-Fluoro-3-benzofuranyl)ethyl)-4-(6-methoxycarbonyl-1H-indol-4-yl)piperazine] | 227 to 228
Clc1ccc2occ(CCN3CCN(c4cccc5[nH]ccc45)CC3)c2c1 (as salt: oxalate) [Compound 4t, 1-(2-(5-Chloro-3-benzofuranyl)ethyl)-4-(1H-indol-4-yl)piperazine] | 200 to 202
COC(=O)c1cc(N2CCN(CCc3c[nH]c4ccccc34)CC2)c2cc[nH]c2c1 (as salt: oxalate) [Compound 4f, 1-(2-(1H-indol-3-yl)ethyl)-4-(6-methoxycarbonyl-1H-indol-4-yl)piperazine] | 213 to 216
N#Cc1cccc2c(CCN3CCN(c4cccc5[nH]ccc45)CC3)c[nH]c12 (as salt: oxalate) [Compound 1l, 1-(2-(7-Cyano-1H-indol-3-yl)ethyl)-4-(1H-indol-4-yl)piperazine] | 241 to 243
Clc1ccc2c(CCN3CC=C(c4cccc5[nH]ccc45)CC3)c[nH]c2c1 (as salt: fumarate) [Compound 2g, 1-(2-(6-Chloro-1H-indol-3-yl)ethyl)-4-(1H-indol-4-yl)-1,2,3,6-tetrahydropyridine] | 225 to 226
c1cc(N2CCN(Cc3coc4ccccc34)CC2)c2cc[nH]c2c1 (as salt: oxalate) [Compound 1b, 1-(3-Benzofuranylmethyl)-4-(1H-indol-4-yl)piperazine] | 226 to 228
Clc1ccc2c(CCN3CCN(c4cccc5[nH]ccc45)CC3)n[nH]c2c1 (as salt: oxalate) [Compound 1k, 1-(2-(6-Chloro-3-indazolyl)ethyl)-4-(1H-indol-4-yl)piperazine] | 255 to 258
C=CCn1ccc2c(N3CCN(CCc4c[nH]c5ccc(F)cc45)CC3)cccc21 (as salt: fumarate) | 210 to 212
Brc1ccc2[nH]cc(CCN3CCN(c4ccc5[nH]ccc5c4)CC3)c2c1 (as salt: fumarate) [Compound 2t, 1-(2-(5-Bromo-1H-indol-3-yl)ethyl)-4-(1H-indol-5-yl)piperazine] | 231 to 233
Cc1oc2c(F)c(F)c(F)c(F)c2c1CCN1CCN(c2cccc3[nH]ccc23)CC1 (as salt: hydrochloride) [Compound 1i, 1-(2-(2-Methyl-4,5,6,7-tetrafluoro-3-benzofuranyl)ethyl)-4-(1H-indol-4-yl)piperaziine] | 181 to 187
Clc1cccc2c(CCN3CCN(c4cccc5[nH]ccc45)CC3)coc12 (as salt: oxalate) [Compound 4v, 1-(2-(7-Chloro-3-benzofuranyl)ethyl)-4-(1H-indol-4-yl)piperazine] | 216 to 218
Clc1ccc2[nH]cc(CCN3CCN(c4ccc5[nH]ccc5c4)CC3)c2c1 (as salt: fumarate) [Compound 2u, 1-(2-(5-Chloro-1H-indol-3-yl)ethyl)-4-(1H-indol-5-yl)piperazine] | 232 to 234
C#CCn1ccc2c(N3CCN(CCc4c[nH]c5ccc(F)cc45)CC3)cccc21 | 153 to 155
Fc1ccc2occ(CN3CCN(c4cccc5[nH]ccc45)CC3)c2c1 (as salt: hydrochloride) [Compound 4l, 1-(5-Fluoro-3-benzofuranylmethyl)-4-(1H-indol-4-4-yl)piperazine] | 238 to 240
